Measurements reported in ChEMBL document CHEMBL1909046, “DrugMatrix in vitro pharmacology data”.

What was measured:
B2 bradykinin receptor = biological target: T1, B2 bradykinin receptor (Homo sapiens, UniProt P30411); format: cell membranes, Membrane; details: chem-1; further: in other assays of this panel Not Active means under 50% inhibition at 10 µM
T1 sequence (P30411 whole entry): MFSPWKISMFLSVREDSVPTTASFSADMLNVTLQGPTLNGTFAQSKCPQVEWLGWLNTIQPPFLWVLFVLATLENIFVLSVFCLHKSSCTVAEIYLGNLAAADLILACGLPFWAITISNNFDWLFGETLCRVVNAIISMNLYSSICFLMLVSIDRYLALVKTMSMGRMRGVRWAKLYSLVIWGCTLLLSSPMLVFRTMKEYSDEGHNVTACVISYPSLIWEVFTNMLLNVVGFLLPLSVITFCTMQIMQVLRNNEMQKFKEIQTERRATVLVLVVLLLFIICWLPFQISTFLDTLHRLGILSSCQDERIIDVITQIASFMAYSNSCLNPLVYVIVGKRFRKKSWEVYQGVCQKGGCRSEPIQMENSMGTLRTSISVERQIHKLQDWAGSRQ

[1] = DRUGMATRIX: Serotonin (5-Hydroxytryptamine) 5-HT3 radioligand binding (ligand: [3H] GR-65630); format: cell membranes, Membrane; details: hek293; Not Active = under 50% inhibition at 10 µM
[2] = DRUGMATRIX: GABAA, Muscimol, Central radioligand binding (ligand: [3H] Muscimol); format: cell membranes, Rattus norvegicus, Wistar, Brain, Membrane; details: Not Active = under 50% inhibition at 10 µM
[3] = biological target: T2, Muscarinic acetylcholine receptor M5 (Homo sapiens, UniProt P08912); format: cell membranes, Membrane; details: cho-k1; further: in other assays of this panel Not Active means under 50% inhibition at 10 µM
T2 sequence (P08912 whole entry): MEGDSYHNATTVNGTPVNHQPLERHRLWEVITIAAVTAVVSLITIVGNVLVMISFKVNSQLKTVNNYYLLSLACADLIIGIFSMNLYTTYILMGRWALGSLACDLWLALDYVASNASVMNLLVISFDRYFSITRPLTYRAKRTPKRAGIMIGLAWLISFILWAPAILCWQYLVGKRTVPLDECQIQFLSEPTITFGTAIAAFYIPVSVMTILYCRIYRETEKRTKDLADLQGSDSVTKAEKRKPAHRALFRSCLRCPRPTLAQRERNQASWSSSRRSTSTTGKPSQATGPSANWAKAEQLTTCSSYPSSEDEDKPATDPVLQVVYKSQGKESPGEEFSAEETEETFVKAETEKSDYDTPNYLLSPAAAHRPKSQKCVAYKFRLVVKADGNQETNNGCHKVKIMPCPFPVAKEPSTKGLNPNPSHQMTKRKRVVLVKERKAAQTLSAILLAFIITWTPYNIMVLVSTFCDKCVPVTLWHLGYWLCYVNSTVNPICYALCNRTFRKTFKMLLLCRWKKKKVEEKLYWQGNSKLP

[4] = biological target: T3, Nitric oxide synthase, inducible (Mus musculus, UniProt P29477); parameters: species or system Escherichia coli;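 further: inhibition of iNOS enzyme activity measured with L-arginine as substrate; in other assays of this panel Not Active means under 50% inhibition at 10 µM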
T3 sequence (P29477 whole entry): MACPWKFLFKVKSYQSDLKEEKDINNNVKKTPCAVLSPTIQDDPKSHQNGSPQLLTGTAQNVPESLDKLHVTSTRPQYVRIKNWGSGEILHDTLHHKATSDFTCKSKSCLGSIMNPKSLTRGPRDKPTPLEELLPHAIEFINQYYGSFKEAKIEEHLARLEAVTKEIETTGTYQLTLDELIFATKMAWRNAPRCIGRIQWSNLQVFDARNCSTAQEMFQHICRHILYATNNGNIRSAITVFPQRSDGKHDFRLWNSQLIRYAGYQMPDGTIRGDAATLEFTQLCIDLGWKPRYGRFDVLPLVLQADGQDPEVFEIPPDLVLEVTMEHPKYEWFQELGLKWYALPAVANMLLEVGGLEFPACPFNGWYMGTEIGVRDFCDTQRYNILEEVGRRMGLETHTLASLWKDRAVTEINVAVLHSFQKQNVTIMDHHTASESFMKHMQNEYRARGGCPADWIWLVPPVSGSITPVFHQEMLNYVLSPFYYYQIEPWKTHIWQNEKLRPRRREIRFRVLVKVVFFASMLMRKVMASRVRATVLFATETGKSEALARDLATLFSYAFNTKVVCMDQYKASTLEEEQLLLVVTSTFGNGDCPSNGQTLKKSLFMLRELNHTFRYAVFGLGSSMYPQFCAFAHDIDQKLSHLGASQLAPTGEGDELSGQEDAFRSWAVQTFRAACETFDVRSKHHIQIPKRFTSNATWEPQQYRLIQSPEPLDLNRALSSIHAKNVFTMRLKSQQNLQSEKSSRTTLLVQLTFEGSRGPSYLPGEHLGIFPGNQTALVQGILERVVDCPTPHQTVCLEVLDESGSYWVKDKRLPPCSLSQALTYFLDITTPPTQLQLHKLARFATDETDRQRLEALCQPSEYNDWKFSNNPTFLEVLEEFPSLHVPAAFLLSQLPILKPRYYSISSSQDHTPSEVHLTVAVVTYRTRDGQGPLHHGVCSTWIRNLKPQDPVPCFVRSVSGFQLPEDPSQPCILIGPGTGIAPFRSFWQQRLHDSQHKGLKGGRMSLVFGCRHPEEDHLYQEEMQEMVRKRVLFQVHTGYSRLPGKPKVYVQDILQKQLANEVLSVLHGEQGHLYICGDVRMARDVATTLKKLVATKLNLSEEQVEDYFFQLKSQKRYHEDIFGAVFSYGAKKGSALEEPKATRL

[5] = DRUGMATRIX: Purinergic P2X radioligand binding (ligand: [3H] alpha, beta-Methylene-ATP); format: cell membranes, Oryctolagus cuniculus, New Zealand albino, Urinary bladder, Membrane; details: Not Active = under 50% inhibition at 10 µM
Acetylcholinesterase = Acetylcholinesterase (Homo sapiens, UniProt P22303); experiment: DRUGMATRIX: Acetylcholinesterase enzyme inhibition (substrate: acetylthiocholine); format: cell-based, HEK293; details: hek293; Not Active = under 50% inhibition at 10 µM
Cytochrome P450 1A2 = biological target: T4, Cytochrome P450 1A2 (Homo sapiens, UniProt P05177); details: bti-tn-5b1-4; further: in other assays of this panel Not Active means under 50% inhibition at 10 µM
T4 sequence (P05177 whole entry): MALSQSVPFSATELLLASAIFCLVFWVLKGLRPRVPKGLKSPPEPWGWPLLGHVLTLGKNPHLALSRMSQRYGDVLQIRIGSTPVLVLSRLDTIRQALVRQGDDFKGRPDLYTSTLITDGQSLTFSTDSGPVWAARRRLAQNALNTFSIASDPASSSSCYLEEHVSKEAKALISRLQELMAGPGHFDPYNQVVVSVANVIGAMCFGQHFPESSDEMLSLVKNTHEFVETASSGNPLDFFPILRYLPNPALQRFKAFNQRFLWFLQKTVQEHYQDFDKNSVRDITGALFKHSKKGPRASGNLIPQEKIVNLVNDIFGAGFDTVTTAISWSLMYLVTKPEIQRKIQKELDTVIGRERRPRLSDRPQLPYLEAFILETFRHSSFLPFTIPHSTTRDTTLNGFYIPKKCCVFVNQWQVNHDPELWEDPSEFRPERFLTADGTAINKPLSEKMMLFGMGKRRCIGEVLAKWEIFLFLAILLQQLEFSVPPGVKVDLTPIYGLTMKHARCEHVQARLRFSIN

Chain of Acetylcholinesterase (P22303 whole entry): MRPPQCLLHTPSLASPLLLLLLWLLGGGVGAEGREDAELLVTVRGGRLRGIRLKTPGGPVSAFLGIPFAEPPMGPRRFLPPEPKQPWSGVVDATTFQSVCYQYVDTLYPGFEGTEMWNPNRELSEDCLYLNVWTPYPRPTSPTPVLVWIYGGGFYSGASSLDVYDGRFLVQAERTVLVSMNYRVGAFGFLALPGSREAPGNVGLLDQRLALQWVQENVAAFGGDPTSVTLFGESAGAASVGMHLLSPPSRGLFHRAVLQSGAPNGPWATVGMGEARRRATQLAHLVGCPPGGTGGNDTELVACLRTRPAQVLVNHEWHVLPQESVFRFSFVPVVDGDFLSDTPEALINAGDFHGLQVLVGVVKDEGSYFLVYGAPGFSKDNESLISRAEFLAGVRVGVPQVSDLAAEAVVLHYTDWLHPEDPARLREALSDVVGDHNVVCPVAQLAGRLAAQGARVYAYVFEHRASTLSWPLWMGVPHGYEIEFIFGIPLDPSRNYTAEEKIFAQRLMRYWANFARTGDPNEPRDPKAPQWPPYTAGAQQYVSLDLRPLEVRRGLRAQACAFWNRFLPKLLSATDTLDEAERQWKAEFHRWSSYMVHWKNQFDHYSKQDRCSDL

CC(=O)OCC(CCn1cnc2cnc(N)nc21)COC(C)=O [FAMCICLOVIR]
Not Active: IC50 (B2 bradykinin receptor) | IC50 [1] | Ki [1] | IC50 [2] | Ki [2] | IC50 [3] | IC50 [4] | IC50 [5] | Ki [5] | IC50 (Acetylcholinesterase) | IC50 (Cytochrome P450 1A2) | Ki (Cytochrome P450 1A2)

O=C(O)Cc1ccc(-c2ccccc2)cc1 [FELBINAC]
Not Active: IC50 (B2 bradykinin receptor) | IC50 [1] | Ki [1] | IC50 [2] | Ki [2] | IC50 [3] | IC50 [4] | IC50 [5] | Ki [5] | IC50 (Acetylcholinesterase) | IC50 (Cytochrome P450 1A2) | Ki (Cytochrome P450 1A2)

CC(C(=O)O)c1ccc(-c2ccccc2)c(F)c1 (stereo not given) [FLURBIPROFEN]
Not Active: IC50 (B2 bradykinin receptor) | IC50 [1] | Ki [1] | IC50 [2] | Ki [2] | IC50 [3] | IC50 [4] | IC50 [5] | Ki [5] | IC50 (Acetylcholinesterase) | IC50 (Cytochrome P450 1A2) | Ki (Cytochrome P450 1A2)

NC[C@@H]1O[C@H](O[C@H]2[C@@H](O)[C@H](O[C@@H]3[C@@H](O)[C@H](N)C[C@H](N)[C@H]3O[C@H]3O[C@H](CN)[C@@H](O)[C@H](O)[C@H]3N)O[C@@H]2CO)[C@H](N)[C@@H](O)[C@@H]1O [FRAMYCETIN]
Not Active: IC50 (B2 bradykinin receptor) | IC50 [1] | Ki [1] | IC50 [2] | Ki [2] | IC50 [3] | IC50 [4] | IC50 [5] | Ki [5] | IC50 (Acetylcholinesterase) | IC50 (Cytochrome P450 1A2) | Ki (Cytochrome P450 1A2)

C[C@H]([C@](O)(Cn1cncn1)c1ccc(F)cc1F)S(C)(=O)=O [GENACONAZOLE]
Not Active: IC50 (B2 bradykinin receptor) | IC50 [1] | Ki [1] | IC50 [2] | Ki [2] | IC50 [3] | IC50 [4] | IC50 [5] | Ki [5] | IC50 (Acetylcholinesterase) | IC50 (Cytochrome P450 1A2) | Ki (Cytochrome P450 1A2)

Cc1c(F)c(N2CCNC(C)C2)cc2c1c(=O)c(C(=O)O)cn2C1CC1 (stereo not given) [GREPAFLOXACIN]
Not Active: IC50 (B2 bradykinin receptor) | IC50 [1] | Ki [1] | IC50 [2] | Ki [2] | IC50 [3] | IC50 [4] | IC50 [5] | Ki [5] | IC50 (Acetylcholinesterase) | IC50 (Cytochrome P450 1A2) | Ki (Cytochrome P450 1A2)

N=C(N)N/N=C/c1c(Cl)cccc1Cl [GUANABENZ]
Not Active: IC50 (B2 bradykinin receptor) | IC50 [1] | Ki [1] | IC50 [2] | Ki [2] | IC50 [3] | IC50 [4] | IC50 [5] | Ki [5] | IC50 (Acetylcholinesterase) | IC50 (Cytochrome P450 1A2) | Ki (Cytochrome P450 1A2)

C[C@]12CCC(=O)C=C1CC[C@@H]1[C@@H]2[C@@H](O)C[C@@]2(C)[C@H]1CC[C@]2(O)C(=O)CO [HYDROCORTISONE]
Not Active: IC50 (B2 bradykinin receptor) | IC50 [1] | Ki [1] | IC50 [2] | Ki [2] | IC50 [3] | IC50 [4] | IC50 [5] | Ki [5] | IC50 (Acetylcholinesterase) | IC50 (Cytochrome P450 1A2) | Ki (Cytochrome P450 1A2)

CC[C@H](C)C(=O)O[C@H]1C[C@@H](C)C=C2C=C[C@H](C)[C@H](CC[C@@H]3C[C@@H](O)CC(=O)O3)[C@H]21 [LOVASTATIN]
Not Active: IC50 (B2 bradykinin receptor) | IC50 [1] | Ki [1] | IC50 [2] | Ki [2] | IC50 [3] | IC50 [4] | IC50 [5] | Ki [5] | IC50 (Acetylcholinesterase) | IC50 (Cytochrome P450 1A2) | Ki (Cytochrome P450 1A2)

CC(C(=O)O)c1ccc(CC2CCCC2=O)cc1 (stereo not given) [LOXOPROFEN]
Not Active: IC50 (B2 bradykinin receptor) | IC50 [1] | Ki [1] | IC50 [2] | Ki [2] | IC50 [3] | IC50 [4] | IC50 [5] | Ki [5] | IC50 (Acetylcholinesterase) | IC50 (Cytochrome P450 1A2) | Ki (Cytochrome P450 1A2)
